From PMC5700161, “Structure of human immunoproteasome with a reversible and noncompetitive inhibitor that selectively inhibits activated lymphocytes” (Nature Communications, 2017)

Assays:
[1] = molecular target: T1, β5i (i-20S) (Homo sapiens, UniProt P20618+P28062); assay: Kinetics studies of modality of inhibition against β5i; format: biochemical
T1 construct: purchased Boston Biochem
Method: Data as in d are shown in double reciprocal plots in e, and data from f in g. […] Data are means ± SEM of three independent experiments […]
With increasing concentrations of PKS21004, both V max and K M decreased (Fig. 1d–g and Supplementary Fig. 1). […] This class thus joins a growing list of noncompetitive proteasome inhibitors[5],[30].
Supplementary Figure 11. Inhibition kinetics of PKS21221 against i-20S β5i. (A) Steady state velocities of the Ac-ANW-AMC hydrolysis at 10, 15, 25, 35 µM by i-20S β5i (0.4 nM) in the presence of PKS21221 at indicated concentrations were determined at 37 °C and plotted by RFU versus substrate concentration (A); values of KM, Ki and α were estimated by PRISM using equation V = (Vmax / (1 + I / (α*Ki))) * S / (KM * (1+ I / Ki) / (1 + I / (α*Ki)) + S); (B) Lineweaver-Burk plot of the data in (A). (C) Plot of KM versus concentrations of PKS21221 indicates a mixed type inhibition. (D) Plot of Vmax versus concentrations of PKS21221.
(1 picture or pasted object on this page, not shown here)

[2] = molecular target: T2, β5i in Karpas 1106P cells (Homo sapiens, UniProt P20618+P28062); assay: Intracellular β5i activity in Karpas 1106P cells, (Ac-ANW)2-R110; format: cell-based
T2 construct: host or cells: Karpas 1106P
Method: (§1) To determine if this class of inhibitors is cell penetrable, we treated the B-cell lymphoma line Karpas 1106P[28] (expressing a high proportion of i-20S over c-20S) with PKS21221 before incubation with either (Ac-ANW)2-R110 (a specific substrate of β5i) or suc-LLVY-luciferin (a substrate of β5) (Fig. 4a). […] No β5i activity was detected in HepG2 cells using (Ac-ANW)2-R110 as a substrate.
(§2) Cell viability was determined by CellTiter-glo.
(§3) Intracellular proteasomal activity and inhibition assay were performed as reported. Karpas 1106P (80,000 cells per well) were plated and incubated with compound at indicated concentrations for 1 h at 37 °C. The activity of the overall β5 activity including β5i and β5c in each was measured in situ after compound removal with Proteasome-Glo assay kit according to manufacturer’s instructions. Luminescence was recorded on a SpectraMax M5 plate reader. Relative percentage of RLU was used to calculate the IC50s.

[3] = molecular target: human β5c (Homo sapiens, UniProt P20618+P28074); assay: IC50 determination against human β5c of c-20S
Method: (§4) IC50s of all compounds against β5i and β5c (Table 2) and against β1i, β2i, β1c, and β2c (Supplementary Table 1) were determined following reported methods[8].

[4] = tested on: proliferating T cells; assay: Apoptosis and viability of proliferating vs non-proliferating T cells; format: cell-based, human; conditions: 4 days anti-CD3/anti-CD28, then 24 h; PKS21221 1 µM, BTZ 10 nM
Description: As we observed selective cytotoxicity of PKS21221 in activated B cells and ASCs compared to non-activated B cells, we asked whether this is the case in proliferating T cells. We activated human T cells to proliferate with anti-CD3 and anti-CD28 in the presence or absence of PKS21221 or bortezomib. […] To examine whether these inhibitors are cytotoxic preferentially to proliferating cells, we triggered T-cell proliferation with anti-CD3/anti-CD28 for 4 days (in the absence of inhibitors), treated the cells with PKS21221 for the next 24 h and determined cell survival with Annexin V and 7-AAD (Fig. 6c, d).
Fig. 6 Effect of PKS21221 and bortezomib (BTZ) on T-cell proliferation. T cells were isolated from human PBMC and stimulated with anti-CD3 (1 µg per ml) and anti-CD28 (1 µg per ml) for 4 days. […] Apoptosis c and viability d were assessed in proliferating and non-proliferating population of T cells. […]
T cells were isolated from human PBMCs using Human T-cell Isolation kit (StemCell Technologies, Cat#17951). […] Cells were counted and loaded with 5 μM CellTrace Violet (Thermo Fisher) in phosphate buffered saline (PBS) for 10 min at 37 °C, followed by wash in 10% fetal calf serum (FCS)-supplemented RPMI 1640 media. […] The viability and apoptosis were assessed using Annexin V Apoptosis Detection Kit (BD Biosciences). […]

[5] = molecular target: T3, β5c in HepG2 cells (Homo sapiens, UniProt P20618+P28074); assay: Intracellular β5c activity in HepG2 cells, suc-LLVY-luciferin; format: cell-based
T3 construct: host or cells: HepG2
Method: as §1, §2, §3

[6] = molecular target: β2i (Homo sapiens, UniProt P40306); assay: IC50 against β2i of human immunoproteasome (Z-VLR-AMC); conditions: read-out: IC50 2i - VLR (β2i); substrate Z-VLR-AMC
Method: as §4

## Cc1ccc(S(=O)(=O)N[C@@H](CC(=O)NC(C)(C)C)C(=O)NCCNC(=O)c2cc(-c3ccccc3F)ccc2F)cc1 [PKS21221]
[1]
  α for β5i (αi-20S): 0.26
[1]; versus substrate
  modality of inhibition of β5i: noncompetitive
[2]
  IC50: 172 ± 33 nM
[3]
  Hill coefficient constant, inhibition of β5c: ~ 1
[3]; read-out: IC50 against β5c
  IC50: 110 nM
[4]
  apoptosis and cell death, proliferating vs non-proliferating T cells: induced apoptosis and cell death to a greater extent in proliferating T cells than in non-proliferating T cells
[5]
  IC50: 1830 ± 138 nM
[6]
  IC50: > 50000 nM
